Laboratory results as given in the supplement of paper PMC8671470.
Structures can show the parent of a compound that is named as a salt. ± gives the standard deviation of the averaged measurements.

Tests used:
Settings in all cases: 72 h
NOMO-1 [1] = tested on: NOMO-1
Procedure, shortened: (§1)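 Each of fifteen myeloid leukaemia cell lines was seeded in RPMI 1640 at a density titrated to its linear growth range. The cells were incubated for 72 h at 37 °C and 5% CO2 with compounds at five tenfold doses from 1 to 10,000 nM, in duplicate. After ATP luminescence was normalised to vehicle and to a positive control at 10 µM, four-parameter log-logistic curves were fitted. These curves gave the IC50.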

K-562 [2] = tested on: K-562
Procedure, shortened: as §1

MV4-11 [3] = tested on: MV4-11
Procedure, shortened: as §1

KU-812 [4] = tested on: KU-812
Procedure, shortened: as §1

Mono-Mac-6 [5] = tested on: Mono-Mac-6
Procedure, shortened: as §1

KG-1 = test: cell viability (% survival relative to DMSO control, bortezomib = 0%); higher = less cytotoxic
Procedure, shortened: (§2)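 After 72 h at 37 °C with 5% CO2, cell viability in 384-well plates was measured by CellTiter-Glo luminescence. The plates held compounds pre-printed at 1, 10, 100, 1000 or 10000 nM in duplicate, and cells from 10 AML and 5 CML lines seeded at densities titrated to linear growth. Percent survival is the duplicate mean, normalised to vehicle as 100% and a 10 µM positive control as 0%.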

NOMO-1 [6] = test: as above
Procedure, shortened: as §2

BV-173 = test: as above
Procedure, shortened: as §2

MOLM-13 = test: as above
Procedure, shortened: as §2

K-562 [7] = test: as above
Procedure, shortened: as §2

KCL-22 = test: as above
Procedure, shortened: as §2

ML-2 = test: as above
Procedure, shortened: as §2

LAMA-84 = test: as above
Procedure, shortened: as §2

MV4-11 [8] = test: as above
Procedure, shortened: as §2

SHI-1 = test: as above
Procedure, shortened: as §2

KU-812 [9] = test: as above
Procedure, shortened: as §2

Mono-Mac-6 [10] = test: as above
Procedure, shortened: as §2

HL-60 [11] = test: as above
Procedure, shortened: as §2

HEL = test: as above
Procedure, shortened: as §2

THP-1 = test: as above
Procedure, shortened: as §2

HL-60 [12] = test: cell viability (% survival relative to DMSO control); higher = less cytotoxic
Procedure, shortened: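 In 384-well plates, the full library was rescreened in duplicate on HL-60 cells in RPMI 1640 with 10% FBS, at 1–10,000 nM in five tenfold concentrations, for 72 h at 37 °C, 5% CO2. Each run also held DMSO or 100 nM of one of three metabolic inhibitors. Viability was measured by CellTiter-Glo and normalised to DMSO wells and to wells with proteasome inhibitor, present at 10 μM. Any area under the curve comes from four-parameter log-logistic fitting with drc and PharmacoGx.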

CN(Cc1cnc2nc(N)nc(N)c2n1)c1ccc(C(=O)N[C@@H](CCC(=O)O)C(=O)O)cc1 [Methotrexate]
Settings	IC50 (cell viability) [µM]
K-562 [2]	0.033
KU-812 [4]	0.0157
MV4-11 [3]	0.00896
Mono-Mac-6 [5]	0.00826
NOMO-1 [1]	0.0515

cell viability [%]
Settings	1 nM	10 nM	100 nM	1000 nM	10000 nM
BV-173	107	98.3	2.71	1.64	2.28
HEL	102	18.6	27.9	6.63	7.79
HL-60 [11]	81.5	32	5.38	7.28	8.39
K-562 [7]	86.9	103	13.3	18.9	21.7
KCL-22	97.1	59.2	40.4	21.1	20.7
KG-1	104	93.8	98.9	94.3	92.9
KU-812 [9]	99	63.1	38.9	33.3	42.5
LAMA-84	98.8	34	22.7	19.4	20.8
ML-2	109	49.7	3.59	3.44	4.58
MOLM-13	88.1	33.1	0.91	0.853	0.962
MV4-11 [8]	112	45.4	3.4	2.47	3.21
Mono-Mac-6 [10]	105	44.3	5.95	7.21	7.86
NOMO-1 [6]	108	94.8	40.4	29.4	30.8
SHI-1	83.7	90.7	44.4	35.8	47.1
THP-1	99.8	96.6	13	10.3	11.8

cell viability [%], HL-60 [12]
Settings	0.001 µM	0.01 µM	0.1 µM	1 µM	10 µM
co-treatment: AZD3965 100 nM	108 ± 5.9	50.6 ± 35	28 ± 3.4	26.3 ± 3.6	26.8 ± 2.2
co-treatment: DMSO vehicle	101.2 ± 0.11	68.4 ± 33	42.4 ± 1.4	32.7 ± 2.7	41.2 ± 2.6
co-treatment: GSK2194069 100 nM	110 ± 3	72.4 ± 38	39 ± 4	27.9 ± 3.6	29.7 ± 2.2
co-treatment: pictilisib 100 nM	104 ± 12	69.8 ± 32	32.358 ± 0.03	27.3 ± 2.5	28.1 ± 2.8

CCN(CCO)CCCC(C)Nc1ccnc2cc(Cl)ccc12 (stereo not given) [Hydroxychloroquine sulfate]
Settings	IC50 (cell viability) [µM]
K-562 [2]	> 10
KU-812 [4]	> 10
MV4-11 [3]	> 10
Mono-Mac-6 [5]	> 10
NOMO-1 [1]	> 10

cell viability [%]
Settings	1 nM	10 nM	100 nM	1000 nM	10000 nM
BV-173	79.7	107	97.6	84.3	94.8
HEL	89.5	102	99	128	98
HL-60 [11]	125	101	96.5	98.5	84.1
K-562 [7]	84.1	97.8	105	101	111
KCL-22	88.5	113	99.1	119	99.3
KG-1	95.1	108	94.6	112	114
KU-812 [9]	93	103	105	99	97
LAMA-84	87	108	106	94.9	93.6
ML-2	92.7	128	92.2	106	105
MOLM-13	81	117	91.8	127	108
MV4-11 [8]	78.8	112	93.2	102	106
Mono-Mac-6 [10]	92.7	104	91.8	88.2	86.7
NOMO-1 [6]	94.4	106	98.8	94.9	98.2
SHI-1	95.5	106	101	127	104
THP-1	91.5	106	102	92.2	110

cell viability [%], HL-60 [12]
Settings	0.001 µM	0.01 µM	0.1 µM	1 µM	10 µM
co-treatment: AZD3965 100 nM	91.8 ± 6	97.2 ± 7.5	105 ± 4	96.7 ± 1.4	101 ± 1.3
co-treatment: DMSO vehicle	92.3 ± 6.9	98.9 ± 4.7	101 ± 6.6	98.9 ± 6.2	99.8 ± 2.9
co-treatment: GSK2194069 100 nM	97 ± 19	101 ± 2.1	111 ± 7.2	99.5 ± 8	104 ± 7.1
co-treatment: pictilisib 100 nM	86.1 ± 14	101 ± 1.4	109 ± 7.7	107 ± 11	103 ± 9.1

O=C(O)CC[N+](=O)[O-] [3-nitropropionic acid]
Settings	IC50 (cell viability) [µM]
K-562 [2]	3.64
KU-812 [4]	> 10
MV4-11 [3]	3.17
Mono-Mac-6 [5]	> 10
NOMO-1 [1]	> 10

cell viability [%]
Settings	1 nM	10 nM	100 nM	1000 nM	10000 nM
BV-173	93.7	93.5	106	114	93.7
HEL	92.8	116	117	98.8	104
HL-60 [11]	52.3	157	104	108	14.7
K-562 [7]	112	120	89.7	95	10.5
KCL-22	73.9	101	98.3	123	81
KG-1	99	91.2	97.3	97.3	104
KU-812 [9]	95.5	103	99.8	99.2	88.1
LAMA-84	104	103	98.6	97.5	103
ML-2	104	107	107	102	87
MOLM-13	68.7	122	110	94	0.718
MV4-11 [8]	105	115	87.2	99.5	0.752
Mono-Mac-6 [10]	102	93.6	101	97.4	104
NOMO-1 [6]	94.8	93.2	101	104	93.4
SHI-1	90.7	120	97.5	92.9	3.76
THP-1	88.2	96.7	99.1	86.5	92.2

cell viability [%], HL-60 [12]
Settings	0.001 µM	0.01 µM	0.1 µM	1 µM	10 µM
co-treatment: AZD3965 100 nM	102 ± 2.5	95.1 ± 6.5	101 ± 3.9	101.5 ± 0.46	97.6 ± 4.4
co-treatment: DMSO vehicle	99.6 ± 5.9	98.8 ± 1.1	107 ± 3.9	111 ± 15	101 ± 5.7
co-treatment: GSK2194069 100 nM	98.1 ± 5.8	76.9 ± 5	116 ± 17	115 ± 27	96.7 ± 5
co-treatment: pictilisib 100 nM	84.3 ± 4.9	82.1 ± 29	103 ± 4.1	128 ± 28	106 ± 16

C[C@H]1c2cccc(O)c2C(=O)C2C(=O)[C@]3(O)C(=O)C(C(N)=O)C(=O)[C@@H](N(C)C)[C@@H]3[C@@H](O)[C@@H]21 (stereo not given in full) [Doxycycline]
Settings	IC50 (cell viability) [µM]
K-562 [2]	9.29
KU-812 [4]	> 10
MV4-11 [3]	> 10
Mono-Mac-6 [5]	> 10
NOMO-1 [1]	> 10

cell viability [%]
Settings	1 nM	10 nM	100 nM	1000 nM	10000 nM
BV-173	107	87.9	99.2	102	69.7
HEL	120	107	90.5	108	75.3
HL-60 [11]	123	100	118	111	67.4
K-562 [7]	112	97	97.3	101	46.2
KCL-22	130	69.3	93.6	109	41.6
KG-1	106	91.7	95.9	95.1	87.9
KU-812 [9]	111	88.3	105	102	74.4
LAMA-84	101	95.3	106	92	66.1
ML-2	111	103	97.9	90	45.9
MOLM-13	124	114	92.7	104	74.5
MV4-11 [8]	110	105	94.2	97	50.9
Mono-Mac-6 [10]	103	98.6	109	94.7	90.4
NOMO-1 [6]	103	92	104	103	90.3
SHI-1	111	98	112	105	90.8
THP-1	95	95.9	100	105	106

cell viability [%], HL-60 [12]
Settings	0.001 µM	0.01 µM	0.1 µM	1 µM	10 µM
co-treatment: AZD3965 100 nM	92.6 ± 9.1	97.9 ± 4.6	99.6 ± 4.2	96.7 ± 8.5	113 ± 5.6
co-treatment: DMSO vehicle	100 ± 2.7	101 ± 4.3	104 ± 2	102 ± 1.5	114.8 ± 0.59
co-treatment: GSK2194069 100 nM	93.3 ± 7.2	96 ± 4.9	99.5 ± 5.7	94.8 ± 6.5	108.3 ± 0.83
co-treatment: pictilisib 100 nM	91.7 ± 6.2	98.48 ± 0.73	99.2 ± 1.6	102 ± 3.8	96.9 ± 6.5

O=c1cc(-c2ccccc2)oc2c1ccc1ccccc12 [Alpha-Naphtoflavone]
Settings	IC50 (cell viability) [µM]
K-562 [2]	> 10
KU-812 [4]	> 10
MV4-11 [3]	> 10
Mono-Mac-6 [5]	> 10
NOMO-1 [1]	> 10

cell viability [%]
Settings	1 nM	10 nM	100 nM	1000 nM	10000 nM
BV-173	105	92.1	105	111	108
HEL	96.1	95.6	102	96.4	102
HL-60 [11]	118	83.8	95.6	104	103
K-562 [7]	95.8	101	109	90.2	108
KCL-22	107	98.1	97.7	85.8	84.8
KG-1	114	89.4	95.1	90.9	74.7
KU-812 [9]	98.8	99.3	96.3	96	89.9
LAMA-84	103	95.9	103	93.5	94.4
ML-2	101	102	93.4	83.4	82.3
MOLM-13	115	93.5	96.2	80.9	90.1
MV4-11 [8]	106	109	107	89.6	97.1
Mono-Mac-6 [10]	92.7	90.3	93.6	111	113
NOMO-1 [6]	99.7	94.3	108	95.6	95.2
SHI-1	113	99.2	97.7	95.8	96.8
THP-1	98.3	99.6	102	102	101

cell viability [%], HL-60 [12]
Settings	0.001 µM	0.01 µM	0.1 µM	1 µM	10 µM
co-treatment: AZD3965 100 nM	103 ± 6.3	99 ± 5.6	102 ± 4	100.7 ± 0.43	101.2 ± 1
co-treatment: DMSO vehicle	102 ± 1.3	99.7 ± 3.6	97.6 ± 4.9	98.3 ± 3.9	101 ± 1.2
co-treatment: GSK2194069 100 nM	98.2 ± 2.1	101 ± 5.7	110 ± 9.3	99.9 ± 4.9	98.3 ± 4.6
co-treatment: pictilisib 100 nM	96.8 ± 1	101.3 ± 0.75	99.3 ± 2	93 ± 4.5	90 ± 3.6
